US20050037062A1, “Emulsifying systems containing azetidine derivatives” (Aventis Pharma S.A., priority 2003, published 2005)
Values after ≈ are worked out from the molar mass of the structure shown. Like-named read-outs stand apart in the source and are kept apart here.

Experiments:
[1] = Solubility of compound (Ic) in lipids, surfactants and pharmaceutical cosolvents; format: physicochemical
From the text: The first step was to determine the solubility of compound(Ic) in an exhaustive series of lipids and other pharmaceutical cosolvents including vegetable oils, lipidic components, surfactants, hydrophilic components and phospholipids. The protocol of the solubility measurement is reported in the annex.

[2] = First in Man study (Maximum Tolerated Dose, interindividual variability, food effect); format: in vivo; details: Miglyol 812N solution
Experimental: (§1) In the first preclinical studies performed in rats, the oral administration of an aqueous suspension of a drug substance of formula (I) in 0.5% methylcellulose/0.2% tween 80 (dose at 10 mg/kg) led to a very low bioavailability (3%). […] Furthermore, this excipient (medium chain triglyceride) is known for its digestibility and regulatory acceptability. […] However, in the First in Man study, an important food effect and interindividual variability were observed: the Maximum Tolerated Dose was around 100 mg in fasted conditions, with an interindividual variability of 50%, whereas in fed conditions the Maximum Tolerated Dose was divided by 10 with a decrease of the interindividual variability to 30%.

[3] = Colloidal stability and self-emulsifying properties: drug recovered after incubation in simulated GI media and filtration; format: physicochemical; details: for Compound (Ic) recovered after filtration (2 μm) after incubation with GI media: diluted 1:50, 2 h at 37° C., theoretical concentration 200 μg/ml; for filtered fraction: aqueous solution of the drug, filter 0.45, 2 or 5 μm
Experimental: The preparation of the mixture of Miglyol 812 (liquid), Cremophor RH40 (semisolid at room temperature, solidification point 28° C.) and Capryol 90 (liquid) needed to heat the mixture at 60° C. to obtain a homogeneous solution. In addition, the heating of the mixture could have an impact on the chemical stability of Compound Ic. Taking into account these two issues, the proposition was made to replace Cremophor RH 40 by Cremophor EL (from same chemical family). Cremophor EL, polyoxyl 35 castor oil, is a liquid surfactant: No heating is needed for the manufacturing. Two tests were performed to evaluate the interest of Cremophor EL in comparison with Cremophor RH 40: design of the pseudoternary diagram for a surfactant/co surfactant ratio of 3:1 and test of the infinite dilutability. [drawing 15] • Miglyol 812N (Condea, Batch 508) • PEG 400—Batch 5056 • Phosal 50PG (Aventis Nattermann, Batch 228188) • Labrafil 1944CS (Gattefossé, Batch 15195) • Labrasol (Gattefossé, Batch 22478) • Gelucire 44/14 (Gattefossé, Batch 14236) Microemulsions (Cremophor RH40 or EL, Capryol 90, Miglyol 812N) The weighed drug (50 mg) was dispersed in the excipient (up to 5 g), and then maintained under mechanical stirring until dissolution. […] The mass was poured in a suppository mould and kept refrigerated overnight. For the stability studies, the melted mass was poured into hard gelatine capsule (size 1) and kept refrigerated overnight. The gelatine shell was then removed. [drawing 17] The following simulated media were selected for the present experiment: • Gastric medium USP, pH 1.2 • Fasted intestinal medium, pH 6.8 (ref. Dressman et al., Pharm. Res., 1998)
Fed intestinal medium, pH 5 (ref. Dressman et al., Pharm. Res., 1998)
All Compound (Ic) formulations (400 mg) were diluted 1:50 in the gastric, fasted intestinal or fed intestinal medium (20 ml), then incubated during 2 hours at 37° C. under mechanical stirring (300 rpm). The drug concentration was determined by HPLC before and after filtration (0.2 or 2 μm).
The aim of this study was to evaluate the colloidal stability and the self-emulsifying properties of the emulsion/microemulsion/micellar solution of the (Ic) formulation after incubation in the GI media. Thus, the sample was filtered onto 2 μm (able to retain oil droplets >2 μm, as well as drug crystals >2 μm) then dosed by HPLC. The filter size (2 μm) has been chosen after a screening with different filter sizes (0.45, 2 and 5 μm) tested on the aqueous solution of the drug. […] In summary, the filtered fraction was approximately 1% in the gastric medium, 2% in the fasted intestinal medium, 4.5-5.5% in the fed intestinal medium.

[4] = Oral bioavailability in preclinical studies in rats; details: rat, in vivo
Experimental: as §1

CS(=O)(=O)C(=C1CN(C(c2ccc(Cl)cc2)c2ccc(Cl)cc2)C1)c1cc(F)cc(F)c1 [Compound (Ic)]
solubility ([1]; aqueous with cosolvent or surfactant or cyclodextrin, in Cremophor RH40 (POE hydrogenated castor oil), read-out: solubility): 80.6 mg/mL (≈ 163 mM)
solubility ([1]; aqueous with cosolvent or surfactant or cyclodextrin, in HP β Cyclodextrin, read-out: solubility): 0.05 mg/mL (≈ 0.101 mM)
solubility ([1]; aqueous with cosolvent or surfactant or cyclodextrin, in Span 20 (Sorbitan monolaurate), read-out: solubility): 31.6 mg/mL (≈ 63.9 mM)
solubility ([1]; aqueous with cosolvent or surfactant or cyclodextrin, in Span 85 (Sorbitan trioleate), read-out: solubility): 92 mg/mL (≈ 186 mM)
solubility ([1]; aqueous with cosolvent or surfactant or cyclodextrin, in Tween 80 (POE monooleate), read-out: solubility): 50.6 mg/mL (≈ 102 mM)
solubility ([1]; in Brij 96 (POE oleyl ether)): 85.7 mg/g
solubility ([1]; in Capryol 90 (Polyethyleneglycol monocaprylate)): 56.6 mg/g
solubility ([1]; in Castor oil): 16.1 mg/g
solubility ([1]; in Coconut oil): 18.6 mg/g
solubility ([1]; in Cremophor RH 40 (Polyoxyl 40 hydrogenated castor oil)): 80.6 mg/g
solubility ([1]; in Crossential LN 75 (Linolenic acid)): 45.4 mg/g
solubility ([1]; in Crossential O94 (Oleic acid)): 19.6 mg/g
solubility ([1]; in Edenor C8 98-100 (Caprylic acid)): 75.5 mg/g
solubility ([1]; in Gelucire 44/14 (lauroyl macrogol-32 glycerides)): 90.1 mg/g
solubility ([1]; in Gelucire 50/13 (stearoyl macrogol-32 glycerides)): 78.5 mg/g
solubility ([1]; in Labrafil M 1944 CS (Oleic Macrogol-6 glycerides)): 30.3 mg/g
solubility ([1]; in Labrasol (Caprylocaproyl macrogol-8 glycerides)): 111.8 mg/g
solubility ([1]; in Lauroglycol (PG monolaurate)): 28.5 mg/g
solubility ([1]; in Miglyol 812 (Caprylic/capric triglycerides)): 37.4 mg/g
solubility ([1]; in Myrj 45 (POE stearate)): 86.9 mg/g
solubility ([1]; in Myvacet 9-45 (Distilled acetylated monoglycerides)): 54.8 mg/g
solubility ([1]; in Neobee M 20 (PG dicaprylate/dicaprate)): 47.7 mg/g
solubility ([1]; in Olive oil): 10.9 mg/g
solubility ([1]; in PEG 1500 (polyethylene glycol 1500)): <10 mg/g
solubility ([1]; in Phosal 40 MD (Phosphatidylcholine 38 ± 1.5% in glyceryl stearate, soya oil and linoleic acid ethylester)): 12.5 mg/g
solubility ([1]; in Phosal 50 PG (Phosphatidylcholine ≧ 50% in propylene glycol)): 11.7 mg/g
solubility ([1]; in Phosal 50 PG (Phosphatidylcholine ≧ 50% in propylene glycol), listed as Compound Ic): 11.5 mg/g
solubility ([1]; in Phosal 53 MCT (Phosphatidylcholine 56 ± 3% in caprylic/capric triglycerides, alcohol, glyceryl stearate, oleic acid and ascorbyl palmitate)): 25.8 mg/g
solubility ([1]; in Phosal 75 SA (Phosphatidylcholine 75 ± 3% in alcohol, safflower oil, glyceryl stearate, coconut oil and ascorbyl palmitate)): <10 mg/g
solubility ([1]; in Phospholipon 90 (Phosphatidylcholine 93%)): 40 mg/g
solubility ([1]; in Safflower oil): 14.8 mg/g
solubility ([1]; in Sesame oil): 10.9 mg/g
solubility ([1]; in VitaminE TPGS (d-α-tocopheryl polyethylene glycol 1000 succinate)): 100 mg/g
solubility ([1]; oil or lipid, in Imwitor 742 (Glyceryl mono-dicaprylate/caprate), read-out: solubility): 31.2 mg/mL (≈ 63.1 mM)
solubility ([1]; oil or lipid, in Imwitor 988 (Glyceryl mono-dicaprylate), read-out: solubility): 41.2 mg/mL (≈ 83.3 mM)
solubility ([1]; oil or lipid, in Labrafil M1944 CS (oleyl macrogol-6-glycerides), read-out: solubility): 30.3 mg/mL (≈ 61.3 mM)
solubility ([1]; oil or lipid, in Miglyol 812 (caprylic/capric triglyceride), read-out: solubility): 35.9 mg/mL (≈ 72.6 mM)
solubility ([1]; oil or lipid, in Peanut oil, read-out: solubility): 7.2 mg/mL (≈ 14.6 mM)
solubility ([1]; oil or lipid, in Soyabean oil, read-out: solubility): 31.8 mg/mL (≈ 64.3 mM)
solubility ([1]; organic solvent or mixture, in Ethanol, read-out: solubility): 5.8 mg/mL (≈ 11.7 mM)
solubility ([1]; organic solvent or mixture, in PEG 400 (polyethylene glycol 400), read-out: solubility): 78.1 mg/mL (≈ 158 mM)
solubility ([1]; organic solvent or mixture, in Transcutol (Diethylene glycol monoethyl ether), read-out: solubility): 89.8 mg/mL (≈ 182 mM)
Maximum Tolerated Dose ([2]; fasted conditions): around 100 mg
interindividual variability ([2]; fasted conditions): 50%
Maximum Tolerated Dose relative to fasted conditions ([2]; fed conditions): divided by 10
interindividual variability ([2]; fed conditions): 30%
Compound (Ic) recovered after filtration (2 μm) after incubation with GI media ([3]; Fasted intestinal medium pH 6.8): 4.2 µg/mL
Compound (Ic) recovered after filtration (2 μm) after incubation with GI media ([3]; Fed intestinal medium pH 5): 8.8 µg/mL
Compound (Ic) recovered after filtration (2 μm) after incubation with GI media ([3]; Gastric medium): 1.9 µg/mL
filtered fraction ([3]; fasted intestinal medium): ~2%
filtered fraction ([3]; fed intestinal medium): 4.5-5.5%
filtered fraction ([3]; gastric medium): approximately 1%
bioavailability ([4]; aqueous suspension in 0.5% methylcellulose/0.2% tween 80, dose 10 mg/kg): 3%
bioavailability ([4]; solution of 25 mg/mL in Miglyol 812N, dose 1 mg/kg): 13%
bioavailability ([4]; solution of 25 mg/mL in Miglyol 812N, dose 10 mg/kg): 37%
